Converted amounts (≈) assume the structure as drawn.
Key:
[1] = system: influenza virus (A/PR/8/34); assay: In vivo influenza virus infection mouse model (survival rate, body weight change); settings: 5 mg/kg, oral, BALB/c mouse infected with A/PR/8/34
Method: (§1) The term “therapeutically effective amount” refers to the amount or dose of an active compound or salt thereof that is sufficient to prevent development of, or alleviate to some extent, one or more of the symptoms of the disorder, disease, or condition being treated. […] In addition, the effect of Compound A on influenza virus growth in lungs of BALB/c mice infected with low infectious dose 100 pfu/mouse of A/PR/8/34 at one-day post-infection was conducted. […] Therefore, based on the results of these preliminary in vivo animal studies, it is estimated that the reasonable therapeutically effective amount of the compound of Formula (I) or a pharmaceutically acceptable salt thereof for human can be about 5-200 mg, about 5-150 mg, about 5-100 mg, about 10-80 mg, about 10-40 mg, about 10-30 mg, about 10-20 mg, about 5-10 mg, about 5-20 mg, about 20-40 mg, or about 40-80 mg. For example but not limited thereto, the therapeutically effective amount of the compound of Formula (I) or a pharmaceutically acceptable salt thereof is 5 mg, 10 mg, 15 mg, 20 mg, 25 mg, 30 mg, 35 mg, 40 mg, 45 mg, 50 mg, 55 mg, 60 mg, 65 mg, 70 mg, 75 mg, 80 mg, 85 mg, 90 mg, 95 mg, 100 mg, 105 mg, 110 mg, 115 mg, 120 mg, 125 mg, 130 mg, 135 mg, 140 mg, 145 mg, 150 mg, 155 mg, 160 mg, 165 mg, 170 mg, 175 mg, 180 mg, 185 mg, 190 mg, 195 mg, or 200 mg.

[2] = system: influenza virus A/PR/8/34; assay: Influenza virus growth in lungs of infected BALB/c mice; format: in vivo; settings: 5 and 25 mg/kg; 100 pfu/mouse A/PR/8/34; one-day post-infection
Method: as §1

[3] = 14-day repeated-dose oral toxicity study; format: in vivo; settings: 300 mg/kg/day
Method: as §1

[4] = Dissolution assessment: solubility in FaSSIF; format: physicochemical
Method: An amount of Compound A (about 6 mg) and amorphous solid dispersion (equivalent to around 6 mg Compound A) were weighed into an 8 ml bottle, and 6 ml FaSSIF (Fasted state simulated intestinal fluid) was added (target concentration 1.0 mg/ml). Then the suspensions were stirred at thermomixer at 37° C. under 600 rpm 200 μL of suspensions were withdrawn at setting time (such as 5 min) and then centrifuged at 14000 rpm for 4 min. After that, 100 μL of supernatant was diluted with CAN five times to prevent precipitation, and was analyzed by HPLC.
FaSSIF was prepared by following steps: 1) Place 0.1024 g sodium hydroxide, 0.7518 g sodium dihydrogen phosphate anhydrous and 1.5470 g sodium chloride in a 250 mL volumetric flask, add about 225 mL water, and adjust the pH to 6.5 with 1N sodium hydroxide or 1N hydrochloric acid. Make up to volume (250 mL) with pure water. 2) Place and dissolve 0.4480 g SIF Powder Original with 100 mL of buffer (from step 1) in a 200 mL volumetric flask, add water to volume and mix well.

[5] = Stability study of Compound A and amorphous solid dispersions (total impurity level, TRS %); format: physicochemical
Method: The amorphous solid dispersions were stored at 4° C. (closed) or 40° C./75% RH (closed and open state). After 10 days or 4 weeks, samples were observed by camera, characterized by XRPD and analyzed by HPLC for purity as well as kinetic solubility. All the samples for closed storage conditions were put into clear glass vials with gaskets and screwed caps. All the samples for open storage conditions were put into clear glass vials with cap, while the month of vials was covered by aluminium foil with pinholes to avoid cross-contamination.
The sample number in TABLE 2 corresponds to the sample number in TABLE 1.

COC(=O)OCOc1c2n(ccc1=O)N([C@H]1c3ccccc3CSc3c1ccc(F)c3F)CC1(CC1)C2=O [Compound A, [1-((11S)-7,8-difluoro(6H,11H-dibenzo[c,f]thiepin-11-yl))-4,6-dioxospiro[1,2,3,9-tetrahydropyridino[1,2-e]pyridazine-3,1′-cyclopropane]-5-yloxy]methyl methoxyformate]
antiviral efficacy on body weight change [1]: good antiviral efficacy | antiviral efficacy on survival rate [1]: good antiviral efficacy | Virus titers in lungs vs vehicle treated group [2]: significantly lower | deaths or toxic effect [3]: did not cause deaths or have toxic effect | Solubility, 5 min ([4]; FaSSIF, 37° C., 600 rpm, target concentration 1.0 mg/ml, 5 min): 4.95 µg/mL (≈ 9.16 µM) | Solubility, 15 min ([4]; FaSSIF, 37° C., 600 rpm, target concentration 1.0 mg/ml, 15 min): 4.89 µg/mL (≈ 9.05 µM) | aqueous solubility ([4]; statement in words): low aqueous solubility | 4° C. Closed for 4 wks TRS % ([5]; 4° C., closed, 4 weeks): 0.76% | 40° C./75% RH Closed for 4 wks TRS % ([5]; 40° C./75% RH, closed, 4 weeks): 0.86% | 40° C./75% RH Open for 4 wks TRS % ([5]; 40° C./75% RH, open, 4 weeks (cells without #)): 0.82% | Initial TRS % ([5]; initial, total relative substances by HPLC): 0.79%

Source: patent US20230414612A1, “PHARMACEUTICAL COMPOSITION COMPRISING A CAP-DEPENDENT ENDONUCLEASE INHIBITOR” (TaiGen Biotechnology Co., Ltd., priority 2022, published 2023)
